Target: T1, human TGR5 (Homo sapiens, UniProt Q8TDU6)
T1 construct: expressed in transfected cells; host or cells: BHK cells
T1 sequence (Q8TDU6 1-330): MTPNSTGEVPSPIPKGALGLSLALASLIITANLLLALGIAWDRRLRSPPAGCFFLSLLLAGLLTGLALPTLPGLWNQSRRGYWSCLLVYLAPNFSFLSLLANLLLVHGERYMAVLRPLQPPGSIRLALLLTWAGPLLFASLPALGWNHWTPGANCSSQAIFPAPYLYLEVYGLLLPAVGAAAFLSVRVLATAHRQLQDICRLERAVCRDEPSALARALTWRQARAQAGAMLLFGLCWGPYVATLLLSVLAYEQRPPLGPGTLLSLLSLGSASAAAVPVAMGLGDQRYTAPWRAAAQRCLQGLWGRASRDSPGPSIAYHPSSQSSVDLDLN
Test: cAMP production in BHK cells expressing the human TGR5 (CisBio cAMP kit), normalized to LCA = 100%
Assay type: cell-based
Details: BHK cells expressing human TGR5, 30 minutes incubation
Experimental: The activity of the natural products, with respect to their TGR5 activating capacities, was analyzed as follows:
BHK cells, expressing the human TGR5, were seeded into 384-well plates and grown overnight. The next day, natural test compounds (and LCA as positive control) were incubated on the cells for 30 minutes. As TGR5 couples to […] proteins, the increase of cellular cAMP production, as a measure for TGR5 activity, was analyzed by using a commercially available cAMP kit (CisBio international). The cAMP production was measured according to the kit manufacturer's protocol. Data were normalized by setting the cAMP production induced by LCA to 100% activity. EC50 values were determined by using the GraphPad PrismSoftware (Graph. Pad Software Inc.).

EC50	EC50 (unit inferred)	SMILES
3000 nM	–	C=CC1C(CO)=CCC2C1CCC1C(C)(C)C(=O)CCC21C (centres unmarked) [A1, 17-hydroxy-12,15-cleistanthadiene-3-one]
–	400 nM	CCC(C)C1OC(=O)C(Cc2ccccc2)NC(=O)C(C)C/C(C)=C/C(C)C(O)/C(C)=C/C1C (centres unmarked) [A4, (8E,12E)-3-benzyl-15-sec-butyl-11-hydroxy-6,8,10,12,14-pentamethyl-1-oxa-4-azacyclopentadeca-8,12-diene-2,5-dione]

Reference: patent US20110092582A1, “New Terpenes And Macrocycles” (MERCK PATENT GESELLSCHAFT, priority 2008, published 2011)
